Data published in patent US20200030388A1, “COMPOSITIONS FOR MODIFYING GUT MICROBIOTA” (priority 2017, published 2020).
Where “and” joins values, the source holds several entries; their conditions need not be identical. Identical values can stand only once. Marks after values point to notes of the source that are not given here.

Experiments:
[1] = system: Mouse 3T3-L1 pre-adipocytes; assay: Adipogenesis inhibition in 3T3-L1 cells, Oil red O staining; type: cell-based; settings: 3T3-L1 adipocytes, read-out: inhibition of lipid accumulation
Description: Garcinol (20%) stock of 10 mg/ml was prepared in DMSO and filtered through 0.2 micron syringe filter. Stock was diluted 1000 times in DMEM to get 10 μg/ml final concentration and serially diluted. Insulin (Hi Media) was bought as a solution at a concentration of 20 mg/ml. This was diluted to 1 μg/ml in DMEM. IBMX-(Sigma)—Stock of 5 mM was prepared in DMEM, and diluted 10 times to be used at a final concentration of 0.5 mM. Dexamethasone (Sigma)—A stock of […] was prepared in DMEM and diluted 40 times to get a final concentration of 0.25 μM
Mouse 3T3-L1 pre-adipocytes were cultured in DMEM containing 25 mM glucose with 10% heat-inactivated fetal calf serum with antibiotics at 37° C. and 5% CO2. When the cells were 70-80% confluent, they were trypsinized, washed and seeded in 6 well plates at a density of 2×10^6 cells per well. Cells were induced to differentiate 2 d after reaching confluence (day 0), by supplementing DMEM media containing 10% Fetal Bovine Serum (FBS) along with 1 μg/mL insulin, 0.25 μM dexamethasone, 0.5 mM 1-methyl-3-isobutyl-xanthine (IBMX) and different concentrations of Garcinol (20%). From day 3 until day 7, cells were maintained in progression media supplemented with 1 μg/mL insulin and different concentrations of Garcinol (20%). […] Quantification for amount of triglycerides accumulated in adipocytes was done by Oil red O staining.

[2] = system: Gut Microbiota in HFD-Fed Mice; assay: Gut microbiota classification by next generation sequencing (Example 4); type: in vivo, mouse
Description: Total DNA was extracted from fresh fecal samples by using the innuPREP Stool DNA kit (Analytik Jena AG, Jena, Germany) according to the manufacturer's instructions. According to the concentration, DNA was diluted to 1 ng μ L^−1 using sterile water. 6SrRNA/18SrRNA/ITS genes of distinct region (16SV4/16SV3/16SV3-V4/16SV4-V5, 18S V4/18S V9, ITS1/ITS2, Arc V4) were amplified using a specific primer (e.g. 16SV4: 515F-806R, 18S V4: 528F-706R, and 18S V9: 1380F-1510R) with a barcode. All PCR reactions were carried out using a Phusion® High-Fidelity PCR master mix (New England Biolabs, Ipswich, Mass., USA). The PCR products were mixed in ratios of equal density. Then, the mixed PCR products were purified using a Qiagen gel extraction kit (Qiagen, Hilden, Germany). Sequencing libraries were generated using the TruSeq® DNA PCR-free sample preparation kit (Illumina, San Diego, Calif., USA) following the manufacturer's recommendations, and index codes were added. The library quality was assessed using the Qubit@ 2.0 Fluorometer (Thermo Scientific) and Agilent Bioanalyzer 2100 system. Lastly, the library was sequenced using an Illumina HiSeq 2500 platform, and 250 bp paired-end reads were generated. The classification was based on the Greengenes database (https://greengenes.lbl.gov/).

[3] = system: High Fat Diet Induced Obesity in C57 Mice; assay: High fat diet induced obesity in C57 mice, 16 weeks (Example 1); type: in vivo, mouse; settings: for Change in weight / Final weight / Kidney weight / Pancreas Weight / Spleen Weight / Mesenteric Fat / Peri-gonadal Fat / Retroperitoneal Fat: HFD; for Change in weight / Final weight / Mesenteric Fat / Peri-gonadal Fat / Retroperitoneal Fat: 120 days
Description: C57/BL6 mice, 6-8 weeks of age and 8 animals/Group (4 Male and 4 Female) were used for the study. Animals were housed under standard laboratory conditions, air-conditioned with adequate fresh air supply (12-15 Air changes per hour), room temperature 20.2-23.5° C. and relative humidity 58-64% with 12 hours fluorescent light and 12 hours dark cycle. The temperature and relative humidity was recorded once daily.
The animals were fed with Normal diet (9 kcal/day) and High fat diet (50 kcal/day) throughout the acclimatization and experimental period.
The design of the study groups is depicted in table 2.
Body weight of the animals was recorded in all the days of experimental period. At the end of the experimental period, the animals were sacrificed by cervical dislocation. Blood was collected and Serum was separated by centrifugation and used for the analysis of biochemical parameters. The organs such as Liver Kidney, Spleen and Pancreas and Fat Tissues (Retroperitoneal, Peri-gonadal and Mesenteric) were dissected out and washed in phosphate buffered saline.
The following parameters were measured in the above groups: • Measurement of Body weight • Determination of Organ Weight • Estimation of Cholesterol (Zak et al., ([…]) A new method for the determination of serum cholesterol. J Clin Endocrinol Metab., 94(7), 2215-2220) • Estimation of Triglycerides (Foster L. B and Dunn R. T. (1973) Stable reagents for determination of serum triglycerides by a colorimetric Hantzsch condensation method. Clin Chem. 196, 338-340). • Estimation of HDL Cholesterol (Burstein et al., (1970). Determination of HDL cholesterol. J. lipid Res., 11, 583). • Determination of LDL and VLDL (Friedewald et al., (1972) Estimation of the concentration of Low Density Lipoprotein cholesterol in plasma without use of preparative centrifuge. J. Clin Chem.; 18:499).

[4] = system: HFD-fed C57BL/6 male mice; assay: Garcinol versus garcinol blend in HFD-fed C57BL/6 mice, 16 weeks (Example 3); type: in vivo, mouse
Description: The present invention studied the anti-obesity effects of garcinol compared to a composition comprising garcinol, pterostilbene and anthocyanin (garcinol blend (GB) in mammals. The study was conducted in vivo on 5 weeks old C57BL/6 male mice. A total of 42 mice were involved in this study with 6 groups of 7 mice each. The groups were divided as in table 8.
The high fat diet (HFD) groups were fed 45% high fat diet for 16 weeks for the induction of obesity and concurrently administered the test substance as indicated in the aforesaid table. The normal group was fed with normal diet for 16 weeks.
Body weight was monitored weekly, and the average body weight of each group (n=7) was expressed as the means±SE.

[5] = system: HFD-induced Obesity in C57BL/6 mice; assay: HFD-induced obesity in C57BL/6 mice, 13 weeks (Example 2); type: in vivo, mouse; settings: for GPT / HDL / LDL / LDL/HDL / T-CHO / TG: plasma; for percentage frequency of adipocytes, Adipocyte Size area 2000 / percentage frequency of adipocytes, Adipocyte Size area 15000 / percentage frequency of adipocytes, Adipocyte Size area >350000: perigonadal adipose tissue
Text: After one week of acclimation, animals were randomly distributed into normal diet (ND, 15% energy as fat), HFD (50% energy as fat), and HFD with 0.1% or 0.5% garcinol groups of eight mice in each group for 13 weeks. The experimental diets were modified from the Purina 5001 diet (LabDiet, PMI Nutrition International, St. Louis, Mo., USA). The animals had ad libitum access to food and water. Food cups were replenished with a fresh diet every day. […] Upon termination of the study, the animals were sacrificed by CO2 asphyxiation and dissected, and the weights of their whole bodies and selected tissues, including the liver, kidney, spleen, adipose tissues (perigonadal, retroperitoneal, and mesenteric fat) and serum were immediately collected, weighed, and photographed.
Sections of 3-5 μm in thickness were cut, deparaffinized, rehydrated, stained with H&E, and subjected to photomicroscopic assessment. Adipocyte size was determined using Image J software (Rasband, W. S., ImageJ, U.S. National Institutes of Health, Bethesda, Md., USA).
Blood samples were collected from the left ventricle under anesthesia. The samples were mixed in 10 μL of heparin sodium and centrifuged at 3500 rpm and 4° C. for 10 min. The plasma was then stored at −80° C. until use. Glutamic-pyruvic transaminase (GPT), total cholesterol (TC), TG, high-density lipoprotein (HDL), and low-density lipoprotein (LDL) levels were analyzed at the National Laboratory Animal Center, NLAC (Taipei, Taiwan) on a 7080 Biochemical Analyzer (Hitachi, Tokyo, Japan) according to the manufacturer's instructions.

[6] = system: HFD-Induced Obese Mice (C57BL/6); assay: GAR, FOR, LMIX, HMIX in HFD-induced obese mice, 12 weeks (Example 4)
Description: Four-week-old, male C57BL/6 mice were purchased from the BioLASCO Experimental Animal Center (Taiwan Co., Ltd., Taipei, Taiwan) and housed in a controlled atmosphere (25±1° C. at 50% relative humidity) with a 12 h light/12 h dark cycle. After 1 week of acclimation, animals were randomly distributed into 6 groups as follows: normal diet (ND, 15% energy from fat), high-fat diet (HFD, 50% energy from lard-based fat), and HFD supplemented with 0.01% garcinol (GAR group), 0.025% Forskolin (FOR group), 0.005% GAR+0.025% FOR (LMIX group), and 0.01% Gar+0.025% For (HMIX group) for 12 weeks. […] Animals had free access to food and water. Food consumption was monitored daily and the body weight was recorded weekly. At the end of the experiments, all animals were sacrificed by CO2 asphyxiation. Blood samples were collected from the heart for biochemical analysis. The liver, spleen, kidney, fat pads (perigonadal, retroperitoneal, and mesenteric fat), and fresh fecal pellets were immediately removed and stored at −80° C. until further analysis.
Liver and the perigonadal adipose tissue were dissected and fixed in 10% buffered formalin for at least 24 h, dehydrated with a sequence of ethanol solutions, and processed for embedding in paraffin. Sections of 4 μm in thickness were cut, deparaffinized, rehydrated, stained with hematoxylin and eosin (H&E), and subjected to photo microscopic observation. Adipocyte size was measured at 100× magnification and determined by Image J software (U. S. National Institutes of Health, Bethesda, Md., USA).

Compound: C=C(C)[C@@H](CC=C(C)C)C[C@@]12C[C@@H](CC=C(C)C)C(C)(C)[C@@](CC=C(C)C)(C(=O)C(C(=O)c3ccc(O)c(O)c3)=C1O)C2=O [garcinol]
- inhibition at 5 µg/mL ([1]; 5 μg/ml): 47.8%
- inhibition at 10 µg/mL ([1]; 10 μg/ml): 47.2%
- abundance of Firmicutes ([2]; 12 weeks (HFD group 43.0%)): 33.9%
- abundance of Bacteroidetes ([2]; 12 weeks (HFD group 50.2%)): 62.4%
- OTUs difference between ND and HFD groups (Venn diagram) ([2]; 12 weeks, FIG. 23A): 26 OTUs
- Change in weight ([3]; G5: garcinol 5 mg/kgbw): 10.03 ± 2.25 g
- Final weight ([3]; G5: garcinol 5 mg/kgbw): 29.33 ± 1.47 g
- Change in weight ([3]; G10: garcinol 10 mg/kgbw): 10.25 ± 1.39 g
- Final weight ([3]; G10: garcinol 10 mg/kgbw): 28.25 ± 1.39 g
- Change in weight ([3]; G20: garcinol 20 mg/kgbw): 7.62 ± 2.18 g
- Final weight ([3]; G20: garcinol 20 mg/kgbw): 27.37 ± 1.88 g
- Change in weight ([3]; G40: garcinol 40 mg/kgbw): 6.28 ± 1.03 g
- Final weight ([3]; G40: garcinol 40 mg/kgbw): 26.00 ± 1.33 g
- Kidney weight ([3]; Group III: garcinol 5 mg/kgbw): 0.49 ± 0.03 g wet tissue
- Pancreas Weight ([3]; Group III: garcinol 5 mg/kgbw): 0.23 ± 0.01 g wet tissue
- Spleen Weight ([3]; Group III: garcinol 5 mg/kgbw): 0.25 ± 0.02 g wet tissue
- Mesenteric Fat ([3]; Group III: garcinol 5 mg/kgbw): 0.63 ± 0.07 g wet tissue
- Peri-gonadal Fat ([3]; Group III: garcinol 5 mg/kgbw): 1.33 ± 0.32 g wet tissue
- Retroperitoneal Fat ([3]; Group III: garcinol 5 mg/kgbw): 0.45 ± 0.06 g wet tissue
- Kidney weight ([3]; Group IV: garcinol 10 mg/kgbw): 0.42 ± 0.03 g wet tissue
- Pancreas Weight ([3]; Group IV: garcinol 10 mg/kgbw): 0.17 ± 0.01 g wet tissue
- Spleen Weight ([3]; Group IV: garcinol 10 mg/kgbw): 0.20 ± 0.01 g wet tissue
- Mesenteric Fat ([3]; Group IV: garcinol 10 mg/kgbw): 0.56 ± 0.05 g wet tissue
- Peri-gonadal Fat ([3]; Group IV: garcinol 10 mg/kgbw): 1.17 ± 0.22 g wet tissue
- Retroperitoneal Fat ([3]; Group IV: garcinol 10 mg/kgbw): 0.43 ± 0.05 g wet tissue
- Kidney weight ([3]; Group V: garcinol 20 mg/kgbw): 0.45 ± 0.06 g wet tissue
- Pancreas Weight ([3]; Group V: garcinol 20 mg/kgbw): 0.21 ± 0.02 g wet tissue
- Spleen Weight ([3]; Group V: garcinol 20 mg/kgbw): 0.22 ± 0.03 g wet tissue
- Mesenteric Fat ([3]; Group V: garcinol 20 mg/kgbw): 0.601 ± 0.08 g wet tissue
- Peri-gonadal Fat ([3]; Group V: garcinol 20 mg/kgbw): 1.35 ± 0.21 g wet tissue
- Retroperitoneal Fat ([3]; Group V: garcinol 20 mg/kgbw): 0.46 ± 0.06 g wet tissue
- Kidney weight ([3]; Group VI: garcinol 40 mg/kgbw): 0.42 ± 0.04 g wet tissue
- Pancreas Weight ([3]; Group VI: garcinol 40 mg/kgbw): 0.22 ± 0.02 g wet tissue
- Spleen Weight ([3]; Group VI: garcinol 40 mg/kgbw): 0.23 ± 0.02 g wet tissue
- Mesenteric Fat ([3]; Group VI: garcinol 40 mg/kgbw): 0.59 ± 0.05 g wet tissue
- Peri-gonadal Fat ([3]; Group VI: garcinol 40 mg/kgbw): 1.41 ± 0.14 g wet tissue
- Retroperitoneal Fat ([3]; Group VI: garcinol 40 mg/kgbw): 0.46 ± 0.04 g wet tissue
- weight of the organs (adverse effects) ([3]; kidney, spleen, pancreas, Table 5): did not adversely affect
- Final weight ([4]; HFD + 0.1% test substance): 32.1 ± 2.6^b g
- Weight gain ([4]; HFD + 0.1% test substance): 10.5 ± 2.1^b g
- Final weight ([4]; HFD + 0.5% test substance): 25.4 ± 0.8^b g
- Weight gain ([4]; HFD + 0.5% test substance): 3.9 ± 0.6^b g
- decrease of mesenteric fat weight compared to the HFD group ([5]; 0.5% garcinol, HFD, 13 weeks): 77.7%
- decrease of perigonadal fat weight compared to the HFD group ([5]; 0.5% garcinol, HFD, 13 weeks): 85.1%
- decrease of retroperitoneal fat weight compared to the HFD group ([5]; 0.5% garcinol, HFD, 13 weeks): 92.4%
- GPT ([5]; HFD + 0.1% Gar): 20.5 ± 7.26^b U/L
- HDL ([5]; HFD + 0.1% Gar): 152.6 ± 9.73^a mg/dL
- LDL ([5]; HFD + 0.1% Gar): 33.3 ± 0.72^b mg/dL
- LDL/HDL ([5]; HFD + 0.1% Gar): 0.22 ± 0.02^b
- T-CHO ([5]; HFD + 0.1% Gar): 179.7 ± 11.85^b mg/dL
- TG ([5]; HFD + 0.1% Gar): 69.6 ± 19.90^ab mg/dL
- percentage frequency of adipocytes, Adipocyte Size area 2000 ([5]; HFD + 0.1% garcinol): 8.38 ± 5.3^b
- percentage frequency of adipocytes, Adipocyte Size area 15000 ([5]; HFD + 0.1% garcinol): 4.03 ± 1.0^a
- percentage frequency of adipocytes, Adipocyte Size area >350000 ([5]; HFD + 0.1% garcinol): 3.32 ± 1.5^b
- GPT ([5]; HFD + 0.5% Gar): 27.6 ± 3.72^ab U/L
- HDL ([5]; HFD + 0.5% Gar): 118.7 ± 13.22^b mg/dL
- LDL ([5]; HFD + 0.5% Gar): 24.9 ± 4.47^c mg/dL
- LDL/HDL ([5]; HFD + 0.5% Gar): 0.21 ± 0.03^b
- T-CHO ([5]; HFD + 0.5% Gar): 137.9 ± 11.78^c mg/dL
- TG ([5]; HFD + 0.5% Gar): 55.6 ± 4.95^b mg/dL
- percentage frequency of adipocytes, Adipocyte Size area 2000 ([5]; HFD + 0.5% garcinol): 19.2 ± 3.9^a
- percentage frequency of adipocytes, Adipocyte Size area 15000 ([5]; HFD + 0.5% garcinol): 1.36 ± 0.9^b
- percentage frequency of adipocytes, Adipocyte Size area >350000 ([5]; HFD + 0.5% garcinol): 0.00 ± 0.0^c
- Weight gain ([6]; 0.01% GAR, 0.025% FOR, LMIX, HMIX): 12.7 ± 2.0^b g
- Final weight ([6]; 0.01% GAR, 0.025% FOR, LMIX, HMIX, listed as GAR): 34.4 g and 34.4 ± 2.6^b g
- Kidney ([6]; organ weight): 0.4 ± 0.03^a g
- Liver ([6]; organ weight): 1.6 ± 0.2^b g
- Spleen ([6]; organ weight): 0.06 ± 0.01^a g
